{
  "source": "patent US10426815B2",
  "about": "“Prevention and treatment of itch with an MRGPR antagonist” (THE GENERAL HOSPITAL CORPORATION, priority 2015, dated 2019)",
  "key": {"PAR2": {"target": "T1, PAR2 (Homo sapiens, UniProt P55085)", "T1 construct": "expressed in transfected cells; host or cells: HeLa cells by analogy with the other receptors", "T1 sequence (P55085 26-397)": "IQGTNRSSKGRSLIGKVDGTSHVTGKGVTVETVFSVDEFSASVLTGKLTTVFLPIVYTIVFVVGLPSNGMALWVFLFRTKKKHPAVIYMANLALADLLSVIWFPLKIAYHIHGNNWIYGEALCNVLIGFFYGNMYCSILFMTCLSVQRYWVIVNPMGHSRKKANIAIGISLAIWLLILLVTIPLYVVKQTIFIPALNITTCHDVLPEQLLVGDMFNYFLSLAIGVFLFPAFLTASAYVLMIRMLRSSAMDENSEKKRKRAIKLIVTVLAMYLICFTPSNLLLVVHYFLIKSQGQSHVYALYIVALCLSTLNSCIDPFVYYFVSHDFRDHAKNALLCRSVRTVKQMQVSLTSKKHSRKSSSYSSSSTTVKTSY", "experiment": "Calcium imaging of cells transfected with the GPCR (Table 1)", "assay_type": "cell-based"}, "MrgX1 (human MRGPRX1)": {"target": "T2, MrgX1 (human MRGPRX1) (Homo sapiens, UniProt Q96LB2)", "T2 construct": "expressed in transfected cells; host or cells: HeLa cells, pcDNA3.1(-)", "T2 sequence (Q96LB2 whole entry)": "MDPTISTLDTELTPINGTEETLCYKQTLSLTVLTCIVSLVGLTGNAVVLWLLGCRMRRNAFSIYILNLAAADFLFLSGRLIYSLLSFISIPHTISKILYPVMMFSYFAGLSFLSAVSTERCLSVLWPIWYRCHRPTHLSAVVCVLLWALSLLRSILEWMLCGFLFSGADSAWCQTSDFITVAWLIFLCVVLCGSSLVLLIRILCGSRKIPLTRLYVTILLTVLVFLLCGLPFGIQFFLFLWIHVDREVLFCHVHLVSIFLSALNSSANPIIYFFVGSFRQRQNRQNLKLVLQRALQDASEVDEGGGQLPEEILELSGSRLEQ", "experiment": "Calcium imaging of cells transfected with the GPCR (Table 1)", "assay_type": "cell-based", "method": "Human NK1 cDNA was obtained from LIFE Technologies, PCR cloned with Xho I-Hind III ends and cloned into pcDNA3.1(−). Mouse NK2 and NK3 expression-ready vectors were obtained from […] (Piscataway, N.J.). All other Mrgprs (human MRGPRX1, human MRGPRX2, human MRGPRX3, human MRGPRX4, mouse MrgprA2a, mouse MrgprA2b, mouse MrgprA3, mouse MrgprA4, mouse MrgprA9, mouse MrgprA10, mouse MrgprB4 and mouse MrgprB5) were cloned by PCR from genomic DNAs and inserted into pcDNA3.1 (−).\n10 μg of expression vector (human MRGPRX2, mouse MrgprA1 or NK1) and 10 μl of LIPOFECTAMINE 2000 transfection reagent were diluted into 0.5 ml of DMEM and separately left at room temperature (RT) for 5 min. They were then mixed and incubated at RT for 20 minutes prior to being added to HeLa cells. HeLa cells were grown to confluence, trypsinized and 1×10^6 cells were pelleted in a 15 ml tube by centrifugation at 1000 rpm for 5 minutes. The DMEM-LIPOFECTAMINE 2000-DNA mixture (1 ml) was then added to the cell pellet, suspended and incubated at RT for 5 minutes. 2 ml of complete DMEM with 10% FBS without antibiotics were added to the tube, mixed by inverting the tube, plated into a 96-well glass bottom plate at 50,000 cells/well, and placed in a 37° C. CO2 incubator for 3 hours. HeLa cells transfected with salmon sperm DNA were plated as a control. The medium was changed after 3 hours and left in the incubator. 24 hours after transfection, the medium in the wells was removed and 100 μl of complete DMEM containing 2 μM of FURA-2 were added to each well and left at room temperature in the dark for 1 hr.\nCalcium imaging was performed immediately after loading cells with Fura-2, using a ZEISS Axiovert 200M microscope platform equipped with a flipping filter wheel for ratiometric imaging. Axiovision software, version 4.6 was used for calcium image analysis of the cells excited at 340 nm and 380 nm. Agonists were added at 15 seconds after the start of the excitation procedure. Antagonists were added five minutes before imaging with the agonists. Images were taken every 5 seconds, including at zero time, during a 90 second period or longer if required. The software later analyzed all images taken during each excitation period. Ratiometric changes were measured in 10-20 cells in each individual experiment. An average of the fluorescence of the cells in each image was calculated and plotted against time in seconds."}, "[1]": {"system": "dorsal root ganglion neurons from NK1 mice", "experiment": "DRG culture and calcium imaging, NK1 knockout mice", "assay_type": "cell-based, mouse", "method": "Cervical to lumbar dorsal root ganglia (DRG) from C57/B6 or NK1 mice (1 month old) were dissected and maintained in DMEM (GIBCO, Langley, Okla., USA), containing […] L-glutamine (FISHER […], Pittsburgh, Pa., USA), 10% heat inactivated fetal bovine serum (GIBCO, Langley, Okla., USA), 5000 U/ml penicillin and 5000 μg/ml streptomycin (FISHER […], Pittsburgh, Pa., USA). Enzymatic digestion was carried out with 1 mg collagenase in 1 ml dispase (ROCHE Applied Sciences, IN, USA), at 37° C. for 70 min. The collagenase/dispase solution was removed, and DRGs were washed and suspended in DMEM containing 125 U DNAse (SIGMA, St Louis, USA) within which the ganglia were mechanically triturated using fire-polished glass pipettes. […] Cells were evaluated using a NIKON Eclipse Ti inverted microscope equipped with an Exi Aqua CCD camera (QIMAGING, British Columbia, Canada). Ca^2+ flux fluorescence was measured as an […] ratio at 340 nm and 380 nm (F340/380) (Lambda DG4, Sutter Instruments, Novato, Calif., US). The 340/380 ratiometric images were analyzed using NIKON Elements AR Software (NIKON, Melville, N.Y. USA). […]"}},
  "note": "“Also recorded” adds a separate entry of the source.",
  "data": [
    {"substance": "SLIGRL: tethered hexapeptide ligand of mouse PAR2 (SEQ ID NO: 7)", "values": [
      {"measurement": "activation of PAR2 by the substance (in words)", "setting": "PAR2", "result": "activates"}
    ]},
    {"substance": "Boc-Gln-D-Trp(Formyl)-Phe benzyl ester trifluoroacetate [QWF]", "values": [
      {"measurement": "inhibition of PAR2 activation by 48/80", "setting": "PAR2", "result": "antagonizes"},
      {"measurement": "inhibition of PAR2 activation by SLIGRL", "setting": "PAR2", "result": "not"},
      {"measurement": "inhibition of human MRGPRX1 activation by chloroquine (CQ)", "setting": "MrgX1 (human MRGPRX1); FIG. 7c: CQ 100 μM, QWF 100 μM", "result": "does not affect; also recorded: does not inhibit"},
      {"measurement": "inhibition of SP-induced activation of NK1 knockout DRG neurons", "setting": "[1]; QWF 1 μM", "result": "significantly diminished; also recorded: blocked; also recorded: inhibits; also recorded: significantly decreases"}
    ]},
    {"substance": "SP: inflammatory undecapeptide neuropeptide of the tachykinin family, synthesized by GenScript", "values": [
      {"measurement": "activation of human MRGPRX1 by the substance (in words)", "setting": "MrgX1 (human MRGPRX1); SP 10 μM (FIG. 9), chloroquine 100 μM (FIG. 7c)", "result": "does not activate"},
      {"measurement": "activation of NK1 knockout DRG neurons by SP", "setting": "[1]; cultured DRGs, calcium imaging", "result": "activated"}
    ]}
  ]
}
